Assay results from article PMC5046141, “Discovery of Isoquinolinoquinazolinones as a Novel Class of Potent PPARγ Antagonists with Anti-adipogenic Effects” (Scientific Reports, 2016).

What was measured:
[1] = Cytotoxicity in 3T3-L1 cells; format: cell-based; details: mouse, read-out: cell viability
Experimental: Prior to testing the PPARγ antagonist potential of isoquinolinoquinazolinones, their cytotoxicity in 3T3-L1 cells (normal cells) was examined. […] These two compounds were then tested for PPARγ inhibitory activity.

[2] = test system: 3T3-L1 preadipocytes; assay: Oil Red O staining assay of adipocyte differentiation; format: cell-based, mouse; details: for inhibition at 25 µM: Mus musculus, 3T3-L1, relative absorbance from Oil Red O staining at 25 μM, read-out: Inhibitory activity (%) on adipocyte differentiation
Experimental: The GW9662-mediated inhibition of PPARγ was confirmed using an Oil Red O staining assay to measure adipocyte differentiation. To investigate whether the novel compounds could inhibit adipocyte differentiation, 3T3-L1 preadipocytes were incubated with differentiation medium (MDI; insulin, dexamethasone, and isobutyl methyl xanthine) in the presence of increasing concentrations of isoquinolinoquinazolinones. Adipogenesis was analyzed using Oil Red O staining after treatment with the compounds.
The mouse preadipocyte cell line 3T3-L1 was maintained at 37 °C in humidified air with 5% CO2. 3T3-L1 cells were cultured in Dulbecco’s modified Eagle medium (DMEM; Life Technologies) supplemented with 10% bovine serum (BS; Gibco Invitrogen, Carlsbad, California, USA) as growth medium. For adipocyte differentiation, cells were cultured for 2 days to full confluence in a 24-well plate and the growth medium was then replaced (day 0) with DMEM supplemented with 10% fetal bovine serum (FBS, Gibco Invitrogen, Carlsbad, California, USA), 5 μg/mL insulin (Sigma, St. Louis, Missouri, USA), 0.5 mM 3-isobutyl-1-methylxanthine (Sigma), and 1 μM dexamethasone (Sigma). After 48 h, the differentiation medium was replaced (day 2) with DMEM + 10% FBS containing 5 μg/mL insulin, and the cells were allowed to accumulate lipid droplets until experimental use.
The accumulation of lipids signifying the formation of adipocytes was observed by staining the differentiated cells with Oil Red O. Following differentiation, cells were washed twice with phosphate-buffered saline (PBS), fixed with 10% formalin for 60 min. Oil Red O stock solution (0.5%) was prepared in isopropanol and filtered in cellulose nitrate filters. Cells were stained with Oil Red O diluted 6:4 in water for 1 h at room temperature. Excess Oil Red O dye was washed off twice with distilled water and then dried. The stained lipid droplets within cells were visualized using an optical microscope and photographed with a digital camera at 100× magnification.

[3] = biological target: T1, PPARγ2 (Mus musculus, UniProt P37238); assay: PPRE-Luc luciferase reporter assay of PPARγ2-induced transcriptional activity in 3T3-L1 cells; format: cell-based; details: for inhibition of PPARγ2 transfection (transcriptional activity), with rosiglitazone stimulation / inhibition of PPARγ2 transfection (transcriptional activity), compound alone: 5 μM; for inhibition of PPARγ2 transfection (transcriptional activity), compound alone: without rosiglitazone; for IC50: 3T3-L1 cotransfected with PPARγ2 and PPRE-Luc, read-out: IC50 with respect to PPARγ2-induced transcriptional activity
T1 construct: expressed in transfected cells; host or cells: 3T3-L1 (mouse preadipocytes), pCS4 CMV vector
T1 sequence (P37238 1-505): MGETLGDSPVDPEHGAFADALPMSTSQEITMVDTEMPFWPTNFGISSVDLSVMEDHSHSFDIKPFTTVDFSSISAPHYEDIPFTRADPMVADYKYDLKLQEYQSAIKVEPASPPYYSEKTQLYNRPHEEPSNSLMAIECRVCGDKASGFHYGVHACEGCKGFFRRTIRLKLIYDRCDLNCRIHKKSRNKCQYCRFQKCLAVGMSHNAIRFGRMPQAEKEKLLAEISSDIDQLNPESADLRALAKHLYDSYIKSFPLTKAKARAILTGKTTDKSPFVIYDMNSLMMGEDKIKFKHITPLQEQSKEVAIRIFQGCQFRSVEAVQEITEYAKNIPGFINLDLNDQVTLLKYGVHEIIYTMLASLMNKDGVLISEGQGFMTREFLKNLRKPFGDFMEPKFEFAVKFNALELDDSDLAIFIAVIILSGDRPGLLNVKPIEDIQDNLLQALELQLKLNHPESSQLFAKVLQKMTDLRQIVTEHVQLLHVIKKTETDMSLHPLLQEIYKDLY
Experimental: To analyze whether isoquinolinoquinazolinones inhibit the transactivation of PPARγ, 3T3-L1 cells were cotransfected with full-length PPARγ2 expression vector with a peroxisome proliferator response element (PPRE)-driven luciferase reporter gene (PPRE-Luc) that has been reported to respond to PPARγ[23][24]. […] Titration curves were generated using Graph Pad Prism®, and the IC50 value of each compound with respect to PPARγ2-induced transcriptional activity was determined.
The transcription activity was determined in 3T3-L1 cells transiently co-transfected with PPRE-driven luciferase reporter gene (PPRE-Luc) and PPARγ2 expression vector. […] After 24 h of transfection, the cells were cultured with indicated combination for 12 h. Luciferase activity was measured after 36 h.
For plasmids expressing PPARγ2, full length PPARγ2 (mouse, 1518 bp: NCBI Reference Sequence: NP_035276.2) was subcloned into CMV promoter-derived mammalian expression vector (pCS4). Plasmids for C285G, R288G mutant PPARγ2 were generated by PCR-based site-directed mutagenesis and also subcloned into CMV promoter-derived mammalian expression vector (pCS4).
3T3-L1 cells were transfected for indicated combinations of expression plasmids along with a luciferase reporter plasmid (PPRE-Luc). PPRE-Luc contains the consensus PPAR responsive element (PPRE). pCMV-β-gal was co-transfected for normalization of transfection efficiency. 24 h after transfection, cells were treated with indicated compounds for 12 h. Luciferase activities were measured using a luciferase reporter assay kit (Promega, Madison, WI, USA). Experiments were performed in triplicate and repeated at least three times.

**Q.** With `COc1cc2cc3n(c(=O)c2cc1OC)CNc1cc(Cl)ccc1-3` [Compound 8o, 3-Chloro-10,11-dimethoxy-5H-isoquinolino[2,3-c]quinazolin-8(6H)-one] as the compound, how does the viability at 25 µM [1] read?
**A.** > 70%

**Q.** And the inhibition at 25 µM [2]?
**A.** 82.9%

**Q.** What about the “Inhibitory activity (%) on adipocyte differentiation” value ([2]; relative absorbance from Oil Red O staining at 25 μM, 25 µM) of the same compound?
**A.** 82.4%

**Q.** And the “inhibition of PPARγ2 transfection (transcriptional activity), with rosiglitazone stimulation” value [3]?
**A.** 88%

**Q.** What about the “inhibition of PPARγ2 transfection (transcriptional activity), compound alone” value [3] of the same compound?
**A.** 82%

**Q.** What about the IC50 [3] of the same compound?
**A.** 2.43 µM

**Q.** For `O=C(Nc1ccccc1)c1cc([N+](=O)[O-])ccc1Cl` [GW9662, reference compound], which inhibition at 25 µM [2] is on record?
**A.** 51.4%

**Q.** And the “inhibition of PPARγ2 transfection (transcriptional activity), with rosiglitazone stimulation” value [3]?
**A.** 48%

**Q.** And the “inhibition of PPARγ2 transfection (transcriptional activity), compound alone” value [3]?
**A.** 46%

**Q.** What about the IC50 [3] of the same compound?
**A.** 4.47 µM

**Q.** For `COc1cc2cc3n(c(=O)c2cc1OC)CNc1ccc(Cl)cc1-3` [Compound 8n, 2-Chloro-10,11-dimethoxy-5H-isoquinolino[2,3-c]quinazolin-8(6H)-one], which viability at 25 µM [1] is on record?
**A.** > 70%

**Q.** What about the inhibition at 25 µM [2] of the same compound?
**A.** 71.5%

**Q.** What about the IC50 [3] of the same compound?
**A.** 5.02 µM
